Measurements taken from PMC6814258 (Pharmaceutical research, 2019).
Counter-ions that a name gives are not always drawn.

What was measured:
Type in all cases: cell-based
Nav1.8 [1] = target: T1, Nav1.8 (Homo sapiens, UniProt Q9Y5Y9); test: Nav1.8 automated patch clamp
Nav1.8 [2] = target: T1, Nav1.8; test: Nav1.8 FLIPR HTS; details: HEK293, read-out: Average percent inhibition at 10 μM (Nav1.8)
human KV7.1 = human KV7.1 (Homo sapiens, UniProt P51787); test: KV7.1 86Rb+ efflux HTS; details: for inhibition at 10 µM: CHO, read-out: Average percent inhibition at 10 μM (KCNQ1)
Sequence of human KV7.1 (P51787 whole entry): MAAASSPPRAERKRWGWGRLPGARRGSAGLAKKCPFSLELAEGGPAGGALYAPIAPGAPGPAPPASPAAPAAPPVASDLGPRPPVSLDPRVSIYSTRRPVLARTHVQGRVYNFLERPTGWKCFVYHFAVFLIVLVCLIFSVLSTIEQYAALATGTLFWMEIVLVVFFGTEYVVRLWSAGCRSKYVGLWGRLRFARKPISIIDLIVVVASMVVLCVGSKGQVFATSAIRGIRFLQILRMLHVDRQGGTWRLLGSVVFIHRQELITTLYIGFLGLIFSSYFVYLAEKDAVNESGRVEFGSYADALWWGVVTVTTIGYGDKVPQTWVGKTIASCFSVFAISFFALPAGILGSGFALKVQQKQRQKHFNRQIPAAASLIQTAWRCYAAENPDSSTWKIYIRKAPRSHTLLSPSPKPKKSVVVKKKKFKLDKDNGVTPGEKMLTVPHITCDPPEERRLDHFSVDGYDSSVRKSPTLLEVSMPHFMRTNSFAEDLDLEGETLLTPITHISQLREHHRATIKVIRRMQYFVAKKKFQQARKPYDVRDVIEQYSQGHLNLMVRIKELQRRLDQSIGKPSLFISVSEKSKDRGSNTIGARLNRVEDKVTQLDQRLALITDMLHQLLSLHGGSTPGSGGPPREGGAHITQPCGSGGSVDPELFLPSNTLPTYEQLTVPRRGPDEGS

T1 sequence (Q9Y5Y9 whole entry): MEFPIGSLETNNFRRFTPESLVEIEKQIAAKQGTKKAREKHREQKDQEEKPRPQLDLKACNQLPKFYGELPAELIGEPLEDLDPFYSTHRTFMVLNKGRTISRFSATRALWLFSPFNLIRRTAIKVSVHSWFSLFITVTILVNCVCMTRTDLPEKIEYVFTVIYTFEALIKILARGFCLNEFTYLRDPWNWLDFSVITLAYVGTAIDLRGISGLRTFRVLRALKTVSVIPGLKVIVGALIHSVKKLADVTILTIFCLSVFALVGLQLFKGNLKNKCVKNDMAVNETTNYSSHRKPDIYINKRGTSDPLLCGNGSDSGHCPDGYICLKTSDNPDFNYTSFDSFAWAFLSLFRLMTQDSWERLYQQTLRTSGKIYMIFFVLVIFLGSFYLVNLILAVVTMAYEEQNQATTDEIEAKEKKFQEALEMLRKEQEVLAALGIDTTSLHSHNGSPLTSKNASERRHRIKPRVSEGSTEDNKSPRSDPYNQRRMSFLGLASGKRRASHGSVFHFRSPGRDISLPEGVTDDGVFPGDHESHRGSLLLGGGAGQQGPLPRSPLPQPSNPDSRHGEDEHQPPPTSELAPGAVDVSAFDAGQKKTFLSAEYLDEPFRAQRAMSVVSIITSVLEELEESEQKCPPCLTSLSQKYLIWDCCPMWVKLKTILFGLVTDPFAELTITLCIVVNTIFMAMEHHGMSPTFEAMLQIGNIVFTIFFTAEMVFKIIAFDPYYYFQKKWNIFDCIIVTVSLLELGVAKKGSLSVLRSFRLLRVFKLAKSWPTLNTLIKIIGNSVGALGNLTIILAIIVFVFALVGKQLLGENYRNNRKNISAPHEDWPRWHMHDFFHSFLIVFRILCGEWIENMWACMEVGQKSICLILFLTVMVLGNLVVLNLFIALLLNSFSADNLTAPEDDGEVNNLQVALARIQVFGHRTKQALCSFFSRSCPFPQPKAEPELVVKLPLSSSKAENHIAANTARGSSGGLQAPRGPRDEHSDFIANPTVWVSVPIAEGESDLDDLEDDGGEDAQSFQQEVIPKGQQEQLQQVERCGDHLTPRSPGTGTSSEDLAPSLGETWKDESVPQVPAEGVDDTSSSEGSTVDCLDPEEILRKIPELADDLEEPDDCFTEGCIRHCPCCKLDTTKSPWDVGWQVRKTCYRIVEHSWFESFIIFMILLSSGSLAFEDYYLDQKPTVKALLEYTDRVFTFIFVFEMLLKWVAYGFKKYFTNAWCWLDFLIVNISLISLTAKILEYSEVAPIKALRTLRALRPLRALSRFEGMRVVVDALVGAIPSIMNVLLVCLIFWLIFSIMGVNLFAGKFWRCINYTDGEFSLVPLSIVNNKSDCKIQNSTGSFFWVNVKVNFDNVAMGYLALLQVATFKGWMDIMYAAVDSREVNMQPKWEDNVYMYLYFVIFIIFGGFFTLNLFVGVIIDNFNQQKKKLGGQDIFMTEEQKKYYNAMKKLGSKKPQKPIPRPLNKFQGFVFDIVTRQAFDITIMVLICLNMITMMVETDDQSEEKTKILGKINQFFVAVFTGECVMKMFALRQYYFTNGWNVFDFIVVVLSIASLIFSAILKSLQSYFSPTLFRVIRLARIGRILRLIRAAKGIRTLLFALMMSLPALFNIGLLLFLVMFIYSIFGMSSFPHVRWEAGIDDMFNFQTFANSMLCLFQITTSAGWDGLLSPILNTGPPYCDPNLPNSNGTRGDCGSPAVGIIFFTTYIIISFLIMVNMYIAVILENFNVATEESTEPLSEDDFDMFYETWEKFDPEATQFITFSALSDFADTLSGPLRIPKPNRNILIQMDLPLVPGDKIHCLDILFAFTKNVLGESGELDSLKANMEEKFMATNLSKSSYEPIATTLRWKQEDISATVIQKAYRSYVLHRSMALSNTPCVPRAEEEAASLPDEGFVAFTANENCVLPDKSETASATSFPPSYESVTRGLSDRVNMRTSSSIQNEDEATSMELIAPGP

Compound	inhibition at 10 µM (Nav1.8 [2])	inhibition at 10 µM (human KV7.1)	also measured
COC(=O)C1=C(C)NC(C)=C(C(=O)OC2CCCN(Cc3ccccc3)C2)C1c1cccc([N+](=O)[O-])c1 (centres unmarked) [Benidipine hydrochloride]	113%	51.1%	IC50 (Nav1.8 [1]): 4400 nM
CC/C(=C(/CC)c1ccc(O)cc1)c1ccc(O)cc1 [Diethylstilbestrol]	99.5%	90.2%	
CC[C@H](c1ccc(O)cc1)[C@@H](CC)c1ccc(O)cc1 [Hexestrol]	91.6%	82%	
CC(C)OC(=O)CCC/C=C\C[C@@H]1[C@@H](CC[C@@H](O)CCc2ccccc2)[C@H](O)C[C@@H]1O [Latanoprost]		63.7%	
COc1cccc(N(C)C(=S)Oc2ccc3c(c2)CCCC3)n1 [Liranaftate]		62.8%	
C[C@H](CCC(=O)O)[C@H]1CC[C@H]2[C@@H]3CC[C@@H]4C[C@H](O)CC[C@]4(C)[C@H]3CC[C@]12C [Lithocholic acid]		80.8%	
Clc1ccc(COC(Cn2ccnc2)c2ccc(Cl)cc2Cl)c(Cl)c1 (centres unmarked) [Miconazole]		79.8%	
Clc1ccc(C(c2ccccc2Cl)C(Cl)Cl)cc1 (centres unmarked) [Mitotane]		49.5%	
COC(=O)C1=C(C)NC(C)=C(C(=O)OCCN(C)Cc2ccccc2)C1c1cccc([N+](=O)[O-])c1 (centres unmarked) [Nicardipine hydrochloride]	123%	50.7%	IC50 (Nav1.8 [1]): 600 nM
COC(=O)C1=C(C#N)NC(C)=C(C(=O)OC(C)C)C1c1cccc([N+](=O)[O-])c1 (centres unmarked) [Nilvadipine]	87.9%		IC50 (Nav1.8 [1]): 600 nM
CS(=O)(=O)Nc1ccc([N+](=O)[O-])cc1Oc1ccccc1 [Nimesulide]		47.9%	
COCCOC(=O)C1=C(C)NC(C)=C(C(=O)OC(C)C)C1c1cccc([N+](=O)[O-])c1 (centres unmarked) [Nimodipine]	96.1%		IC50 (Nav1.8 [1]): 1200 nM
COC(=O)C1=C(C)NC(C)=C(C(=O)OCC(C)C)C1c1ccccc1[N+](=O)[O-] (centres unmarked) [Nisoldipine]		48%	
CCOC(=O)C1=C(C)NC(C)=C(C(=O)OC)C1c1cccc([N+](=O)[O-])c1 (centres unmarked) [Nitrendipine]		46.1%	
COc1ccc(C(=O)c2ccccc2)c(O)c1 [Oxybenzone]		57.4%	
COc1ccc(Cc2nccc3cc(OC)c(OC)cc23)cc1OC [Papaverine hydrochloride]		45.6%	

Compound	inhibition at 10 µM (Nav1.8 [2])	inhibition at 10 µM (human KV7.1)	also measured
Fc1ccc([C@@H]2CCNC[C@H]2COc2ccc3c(c2)OCO3)cc1 [Paroxetine Hydrochloride]		59.9%	
c1ccc2c(c1)Nc1ccccc1S2 [Phenothiazine]		59.8%	
CCN1CCN(C(=O)N[C@@H](C(=O)N[C@@H]2C(=O)N3[C@@H]2SC(C)(C)[C@@H]3C(=O)O)c2ccccc2)C(=O)C1=O [Piperacillin sodium salt]		43.5%	
CC(=O)SCC(Cc1ccccc1)C(=O)NCC(=O)OCc1ccccc1 (centres unmarked) [Racecadotril]	94.8%	46.4%	
O=C(c1ccc(OCCN2CCCCC2)cc1)c1c(-c2ccc(O)cc2)sc2cc(O)ccc12 [Raloxifene hydrochloride]	88.4%	43.3%	
Clc1ccc(C(Cn2ccnc2)OCc2csc3c(Cl)cccc23)c(Cl)c1 (centres unmarked) [Sertaconazole nitrate]		58.6%	
C[C@]12Cc3c[nH]nc3C[C@@H]1CC[C@@H]1[C@@H]2CC[C@@]2(C)[C@H]1CC[C@]2(C)O [Stanozolol]		43.6%	
CCSc1ccc2c(c1)N(CCCN1CCN(C)CC1)c1ccccc1S2.O=C(O)CC(O)C(=O)O.O=C(O)CC(O)C(=O)O [Thiethylperazine dimalate]			Average percent inhibition at 10 μM (KCNQ1) (human KV7.1; 10 μM, n=2, CHO cells, 86Rb+ efflux, normalized to 10 μM chromanol 293B control): 56.9%
C#C[C@]1(O)CC[C@H]2[C@@H]3[C@H](C)CC4=C(CCC(=O)C4)[C@H]3CC[C@@]21C [Tibolone]		87.6%	
Clc1ccc(C(Cn2ccnc2)OCc2ccsc2Cl)c(Cl)c1 (centres unmarked) [Tioconazole]		53.5%	
Cc1cccc(N(C)C(=S)Oc2ccc3ccccc3c2)c1 [Tolnaftate]		69.4%	
CC1(C)O[C@@H]2[C@@H](CO[C@@]3(COS(N)(=O)=O)OC(C)(C)O[C@@H]23)O1 [Topiramate]		44.3%	
CCOC1O[C@H]([C@@H](COCc2ccccc2)OCc2ccccc2)[C@H](OCc2ccccc2)[C@H]1O (some centres unmarked) [Tribenoside]	86.2%	48.8%	
CSc1nc2cc(Cl)c(Oc3cccc(Cl)c3Cl)cc2[nH]1 [Triclabendazole]		76%	
Oc1cc(Cl)ccc1Oc1ccc(Cl)cc1Cl [Triclosan]	87.8%	74%	
Cc1c(C)c2c(c(C)c1O)CCC(C)(COc1ccc(CC3SC(=O)NC3=O)cc1)O2 (centres unmarked) [Troglitazone]		73%	
